The conditions of data set [1]: n-octanol/water; cited from earlier work.
For data set [2] the following is noted: flash point; cited from earlier work.
For data set [3] the following is noted: neat substance; BuAc (reference) = 1.00; cited from earlier work.
The conditions of data set [4]: cited from earlier work.
The nature of data set [5]: Evaporation of fluid volume over time (FIG. 2). Format: physicochemical. From the text: (§1) Line C represents the change in fluid volume of a 20% (v/v) solution of diacetone alcohol in water caused by evaporation (a particular embodiment of the inventive differential evaporation antimicrobial composition), while line D represents the change in fluid phase concentration of the same 20% (v/v) diacetone alcohol in water occurring during the same fluid volume change. In this case, complete evaporation can occur in approximately 75 time units. Comparatively, the 20% (v/v) diacetone alcohol in water can be engaged with a population of microorganisms for a greater duration of time than the conventional antimicrobial composition without reapplication of an additional amount because evaporation occurs at a slower rate as shown by Table 3.
By comparison, Line C represents the change in fluid volume of a 20% (v/v) solution of diacetone alcohol in water, while line D represents the change in concentration of diacetone alcohol in water. As to this non-limiting example, if 10% diacetone alcohol (v/v) is the minimum concentration to provide an antimicrobial composition, then the entire 75 time units provide an antimicrobial composition because the concentration of diacetone alcohol increases over the 75 time units in accordance with embodiments of differential evaporation potentiated antimicrobial compositions.

In data set [6] the test system is Staphylococcus aureus (ATCC 6538). The data set can be described thus: Potentiation Assay (non-evaporative vs evaporative procedure). Format: cell-based. The settings on record: for Evaporated Log 10 Reduction: evaporated in centrifuge 60 minutes; for Non-evaporated Log 10 Reduction: set 60 minutes; for evaporative potentiation of antimicrobial efficacy: evaporative vs non-evaporative procedure, concentrations tested in water. How it is done: Now referring primarily to Table 5 and FIG. […] The non-evaporative and evaporative procedures included 50 μL of an overnight Staphylococcus aureus (ATCC 6538, ˜10^9 CFU/mL) culture added to each 2 mL sterile plastic vial with a conical bottom and dried without capping in a centrifuge for 30 minutes. One hundred microliters of the solution being tested was added to each vial (as triplicate vials) either let set for 60 minutes (non-evaporative) or evaporated in a centrifuge for 60 minutes (evaporative), with time to evaporate being determined by each DAA mixtures own evaporative characteristic. To the non-evaporated vials, 400 μL Mueller Hinton Broth (MHB) was added to the vial and 100 μL was plated onto Nutrient agar (NA). To the evaporated vials, 500 μL of MHB was added and 100 μL was plated onto NA. Plates were incubated overnight at ˜37° C. and counted (the “Potentiation Assay”).

Data set [7] in a line: Relative evaporation rates. Format: physicochemical. The conditions noted are these: BuAc (reference) = 1.00.
Source text: as §1

Data set [8] relates to Staphylococcus aureus (ATCC 6538), Pseudomonas aeruginosa (ATCC 9027), Salmonella Choleraesuis (ATCC 13312). The data set can be described thus: Coverslip assay: composition applied to dried bacteria on glass coverslips, evaporated to dryness, nutrient agar contact. Format: cell-based. How it is done: These bacteria cultures can be diluted to obtain concentrations of about 10^7 through about 10^3 CFU/ml and 10 μl of each dilution can be spread onto a glass coverslip with a sterile loop and allowed to dry. Afterwards, the coverslips containing 10^5 to 10^2 CFU can be placed inside of petri dish. Different concentrations of the amount of substance can be applied to the cover slips with a nebulizer as described by Germicidal Spray Products as Disinfectants, Method 961.02, AOAC International (2004). As a non-limiting example, isopropyl alcohol (IPA) and diacetone alcohol (DAA) can be assessed as above described by obtaining aqueous mixtures of IPA at concentrations of 55% w/w, 20% w/w, and 5% w/w. […] A nutrient agar lightly pressed against the coverslips allows contact of microorganisms on the coverslips with the nutrient agar. The nutrient agar can be incubated for 48 hours at 37° C. in contact with the coverslips and then observed for microbial reproduction in the region where the coverslips contact the nutrient agar. Untreated coverslips can be used as a positive control. Particular examples of utilizing the method are set forth below.

Where [9] appears, read: azeotrope in water, Table 2, listed as Diacetone Alcohol.
Setting [10] is: 3% v/v active component, 97% water.
Setting [11] is: 6% v/v active component, 94% water.
[12] abbreviates: 10% v/v active component, 90% water.
[13] abbreviates: 15% v/v active component, 85% water.
Where [14] appears, read: 20% v/v active component, 80% water.
Setting [15] is: 70% v/v active component, 30% water.

Where two headings read alike, the source gives them in different places.

Consider three compounds from patent publication US9474814B2, “Differential evaporation potentiated disinfectant system” (XY, LLC, priority 2007, dated 2016).

By Log P is commonly meant a log measure of how a compound divides between an organic and an aqueous phase. Turning to `CC(C)=O` [Acetone, reference compound], the log partition coefficient (Log P) in data set [1] is listed as −0.23. The FP in data set [2] was −18 °C. Moreover, the “Relative Evaporation Rates” value in data set [3] was 11.60.
For `CC(=O)CC(C)(C)O` [DAA, 4-hydroxy-4-methyl-2-pentanone], the azeotrope % mol/mol in data set [4] (azeotrope in water, Table 2) is recorded as 2.2% mol/mol. For the same compound, the azeotrope % vol/vol in data set [4] (setting [9]) was 13.43% vol/vol. The azeotrope % w/w is reported as 12.70% w/w in data set [4] (setting [9]) and “about 12.70 % w/w” in data set [4] (azeotrope in water, Table 2, listed as diacetone alcohol). In data set [4] (diacetone alcohol and water), the azeotrope point entry is recorded as “about 12.7 grams per 100 grams of the com”. Further, the lipophilicity (Log P) in data set [1] is recorded as “about −0.14”. The complete evaporation result in data set [5] (20% (v/v) in water) is on record as “approximately 75 time units”. Besides, the “Evaporated Log 10 Reduction” value in data set [6] (setting [10]) is recorded as “X (denotes a plate where the number of colonies represented less than 50% of the number of colonies counted in the corresponding positive control plate, representing reduction of the number of microorganisms (<2 Log10 reduction).)”; in data set [6] (setting [11]), “X (denotes a plate where the number of colonies represented less than 50% of the number of colonies counted in the corresponding positive control plate, representing reduction of the number of microorganisms (<2 Log10 reduction).)”; in data set [6] (setting [12]), “XX (denotes a plate where the number of colonies represented less than 10% of the number of colonies counted in the corresponding positive control plate, representing a significant reduction of the number of microorganisms (>3 Log10 reduction).)”; in data set [6] (setting [13]) it was “XXX (denotes a plate in which zero colonies were present, representing complete reduction of the number of microorganisms (>5 Log10 reduction).)”. The “Non-evaporated Log 10 Reduction” value in data set [6] (setting [10]) is “---0--- (denotes a plate where the numbers of colonies represented more than 50% of the number of colonies counted in the corresponding positive control plate, representing no significant reduction in the population of viable microorganisms (0 to 1 Log10 reduction).)”; in data set [6] (setting [11]) it was “---0--- (denotes a plate where the numbers of colonies represented more than 50% of the number of colonies counted in the corresponding positive control plate, representing no significant reduction in the population of viable microorganisms (0 to 1 Log10 reduction).)”; in data set [6] (setting [12]), “---0--- (denotes a plate where the numbers of colonies represented more than 50% of the number of colonies counted in the corresponding positive control plate, representing no significant reduction in the population of viable microorganisms (0 to 1 Log10 reduction).)”; in data set [6] (setting [13]) it was “XXx (denotes a plate where the number of colonies represented less than 1% of the number of colonies counted in the corresponding positive control plate, representing nearly complete reduction of the number of microorganisms (>4 Log10 reduction).)”. Further, in data set [6], the “evaporative potentiation of antimicrobial efficacy” value is “can be potentiated by evaporation”. Also, the “Relative Evaporation Rates (estimated)” value in data set [7] (20% (v/v)) is 0.31; in data set [7] (40% (v/v)), 0.27. For the same compound, the Evaporated from coverslip entry is “X (denotes a plate where the number of colonies represented less than 50% of the number of colonies counted in the corresponding positive control plate, representing reduction of the number of microorganisms (<2 Log10 reduction).)” in data set [8] (setting [11]); “XX (denotes a plate where the number of colonies represented less than 10% of the number of colonies counted in the corresponding positive control plate, representing a significant reduction of the number of microorganisms (>3 Log10 reduction).)” in data set [8] (setting [12]); “XXX (denotes a plate in which zero colonies were present, representing complete reduction of the number of microorganisms (>5 Log10 reduction).)” in data set [8] (60% v/v active component, 40% water). The “reduction of populations of microorganisms, comparison” value in data set [8] (concentrations at which water evaporated at a greater rate than DAA from the mixture) is reported as “greater reduction of populations of microorganisms than 70% IPA (v/v)”. Also, the “Relative Evaporation Rates” value in data set [3] is 0.14.
In the case of `CC(C)O` [Isopropanol, 2-propanol, reference compound], in data set [4] (Table 1), the “Azeotrope with Water % v/v” value is given as 83% v/v. The “Azeotrope with Water % w/w” value in data set [4] (Table 1) is recorded as 87% w/w. Further, the complete evaporation entry in data set [5] (70% (v/v) in water) is “about 15 time units”. The “Evaporated Log 10 Reduction” value was “---0--- (denotes a plate where the numbers of colonies represented more than 50% of the number of colonies counted in the corresponding positive control plate, representing no significant reduction in the population of viable microorganisms (0 to 1 Log10 reduction).)” in data set [6] (setting [12]); “---0--- (denotes a plate where the numbers of colonies represented more than 50% of the number of colonies counted in the corresponding positive control plate, representing no significant reduction in the population of viable microorganisms (0 to 1 Log10 reduction).)” in data set [6] (setting [14]); “XXX (denotes a plate in which zero colonies were present, representing complete reduction of the number of microorganisms (>5 Log10 reduction).)” in data set [6] (setting [15]). The “Non-evaporated Log 10 Reduction” value is given as “---0--- (denotes a plate where the numbers of colonies represented more than 50% of the number of colonies counted in the corresponding positive control plate, representing no significant reduction in the population of viable microorganisms (0 to 1 Log10 reduction).)” in data set [6] (setting [12]); “XXX (denotes a plate in which zero colonies were present, representing complete reduction of the number of microorganisms (>5 Log10 reduction).)” in data set [6] (setting [14]); “XXX (denotes a plate in which zero colonies were present, representing complete reduction of the number of microorganisms (>5 Log10 reduction).)” in data set [6] (setting [15]). The “evaporative potentiation of antimicrobial efficacy” value in data set [6] is listed as “cannot be potentiated”. Moreover, the FP in data set [2] is 21 °C. In addition, the Evaporated from coverslip entry in data set [8] (setting [11]) is “---o---”; in data set [8] (25% v/v active component, 75% water) it was “---o---”; in data set [8] (setting [15]) it was “X (denotes a plate where the number of colonies represented less than 50% of the number of colonies counted in the corresponding positive control plate, representing reduction of the number of microorganisms (<2 Log10 reduction).)”. For the same compound, in data set [8] (concentrations of 6% and 25% in water), the “reduction of the population of viable microorganisms” value is “did not reduce the population of viable microorganisms”.
